The target in one test is T1, succinate dehydrogenase (Sus scrofa, UniProt A5GZW8+D0VWV4+Q007T0).
T1 construct: isolated from porcine hearts; from tissue; host or cells: porcine heart
As to the kind of experiment: Enzyme activity assay, succinate dehydrogenase (DCIP reduction). The class given is biochemical, porcine. Particulars: read-out: Inhibitors (10 μM, SQR). The procedure, abridged: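 Porcine heart succinate dehydrogenase (2 nM) in 100 mM sodium phosphate pH 7.4, 0.3 mM EDTA, 20 mM sodium succinate and 53 μM DCIP at 23° C with stirring. DCIP reduction followed at 600 nm (ε 21 mM^−1 cm^−1); linear slope minus baseline gives initial rate.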

Another test concerns Erysiphe graminis. The experiment in a line: Erysiphe graminis potting method. It is filed as in vivo. To be noted: Blumeria graminis, read-out: Erysiphe graminis control rating; for pest or weed control at 100 µg/mL: 100 mg/L. As to the method: The fungicidal activity of the control agents and target compounds are determined. The test and investigation method refers to SOP-SC-1116 Erysiphe graminis potting method in disinfectant rolls written by KANGZHUO and GUBAOGEN in “Standard operation specification for testing biological activity of pesticides”.

Another test deals with Sphaerotheca fuliginea. As to the kind of experiment: Sphaerotheca fuliginea potting method. Particulars: Podosphaera fuliginea; 100 mg/L; read-out: Sphaerotheca fuliginea control rating. The class given is in vivo. The procedure:
The fungicidal activity of the control agents and target compounds are determined. The test and investigation method refers to SOP-SC-1101 sphaerotheca fuliginea potting method in disinfectant rolls written by KANGZHUO and GUBAOGEN in “Standard operation specification for testing biological activity of pesticides”.

The record followed here is patent publication US12540118B2, “Dendrene amide compound, bactericide and use thereof” (Jiangsu Flag Chemical Industry Co., Ltd., priority 2020, dated 2026).

T1 sequence (Q0QF01 43-664 partner): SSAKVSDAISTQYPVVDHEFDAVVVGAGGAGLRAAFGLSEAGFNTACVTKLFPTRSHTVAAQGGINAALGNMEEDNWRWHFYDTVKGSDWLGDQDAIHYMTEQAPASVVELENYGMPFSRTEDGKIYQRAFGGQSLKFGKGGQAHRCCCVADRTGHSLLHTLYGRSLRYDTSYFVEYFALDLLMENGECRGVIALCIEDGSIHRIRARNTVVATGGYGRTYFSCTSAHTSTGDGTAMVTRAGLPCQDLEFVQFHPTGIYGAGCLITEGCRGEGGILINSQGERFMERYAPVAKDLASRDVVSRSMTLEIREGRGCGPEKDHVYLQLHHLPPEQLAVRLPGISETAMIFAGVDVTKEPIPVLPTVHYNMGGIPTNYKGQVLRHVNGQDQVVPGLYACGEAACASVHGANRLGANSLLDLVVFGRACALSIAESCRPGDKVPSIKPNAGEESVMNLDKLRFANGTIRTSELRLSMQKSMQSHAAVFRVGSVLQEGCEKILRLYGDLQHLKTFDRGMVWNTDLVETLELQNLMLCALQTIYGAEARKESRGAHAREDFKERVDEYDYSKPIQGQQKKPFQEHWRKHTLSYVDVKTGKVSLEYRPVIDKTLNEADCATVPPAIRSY
T1 sequence (Q007T0 29-280): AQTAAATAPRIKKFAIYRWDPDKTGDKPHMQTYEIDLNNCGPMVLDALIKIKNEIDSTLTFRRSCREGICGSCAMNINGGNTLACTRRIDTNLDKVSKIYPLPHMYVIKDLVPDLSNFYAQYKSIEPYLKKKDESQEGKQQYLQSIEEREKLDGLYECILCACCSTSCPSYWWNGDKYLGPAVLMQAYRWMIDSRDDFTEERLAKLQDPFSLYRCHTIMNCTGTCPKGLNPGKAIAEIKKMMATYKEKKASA
T1 sequence (D0VWV4 30-169): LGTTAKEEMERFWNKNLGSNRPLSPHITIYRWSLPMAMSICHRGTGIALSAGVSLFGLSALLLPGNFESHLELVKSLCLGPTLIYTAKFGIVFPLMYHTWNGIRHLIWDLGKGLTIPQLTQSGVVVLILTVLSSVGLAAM
T1 sequence (A5GZW8 57-159 limits assumed): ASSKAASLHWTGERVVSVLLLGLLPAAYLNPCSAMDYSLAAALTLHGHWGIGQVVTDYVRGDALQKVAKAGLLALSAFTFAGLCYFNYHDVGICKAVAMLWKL

Regarding `C=C(CN(C(=O)c1c(C(F)F)nn(C)c1F)C1CC1)c1cccc(C(F)(F)F)c1Cl` [Compound 46], the inhibition at 10 µM at succinate dehydrogenase was above 90%. For the same compound, the pest or weed control at 100 µg/mL in the test on Erysiphe graminis and in the test with Sphaerotheca fuliginea was 80 to 100% throughout.
Take `CC(C(=C(Cl)Cl)c1cccc(F)c1)N(C(=O)c1c(C(F)F)nn(C)c1F)C1CC1` (centres unmarked) [Compound 177]: on succinate dehydrogenase, the inhibition at 10 µM was above 90%. For the same compound, the pest or weed control at 100 µg/mL in the test with Erysiphe graminis and with Sphaerotheca fuliginea was 80 to 100% throughout.
As for `C=C(c1ccc(F)c(F)c1)C(C)N(C(=O)c1c(C(F)F)nn(C)c1F)C1CC1` (centres unmarked) [Compound 62], the inhibition at 10 µM at succinate dehydrogenase was above 90%. For the same compound, the pest or weed control at 100 µg/mL with Erysiphe graminis and in the test on Sphaerotheca fuliginea was 80 to 100% each time.
In the case of `C=C(c1ccc(C(F)(F)F)cc1Cl)C(C)N(C(=O)c1c(C(F)F)nn(C)c1F)C1CC1` (centres unmarked) [Compound 102], the inhibition at 10 µM at succinate dehydrogenase is above 90%. Also, the pest or weed control at 100 µg/mL in the test with Erysiphe graminis and in the test with Sphaerotheca fuliginea was 80 to 100% throughout.
As for `Cc1ccc(C(C)C)c(C(CN(C(=O)c2c(C(F)F)nn(C)c2F)C2CC2)=C(Cl)Cl)c1` [Compound 145], on succinate dehydrogenase, the inhibition at 10 µM was above 90%. The pest or weed control at 100 µg/mL in the test on Erysiphe graminis and in the test on Sphaerotheca fuliginea was 80 to 100% in each case.
For `Cn1nc(C(F)F)c(C(=O)N(CC(=C(Cl)Cl)c2ccc(Br)cc2Br)C2CC2)c1F` [Compound 134], the inhibition at 10 µM at succinate dehydrogenase is above 90%. For the same compound, the pest or weed control at 100 µg/mL in the test with Erysiphe graminis and with Sphaerotheca fuliginea was 80 to 100% throughout.
Regarding `Cn1nc(C(F)F)c(C(=O)N(CC(=C(Cl)Cl)c2cccc(Cl)c2)C2CC2)c1F` [Compound 117], at succinate dehydrogenase, the inhibition at 10 µM was above 90%. For the same compound, the pest or weed control at 100 µg/mL with Erysiphe graminis and with Sphaerotheca fuliginea was 80 to 100% throughout.
For `Cn1nc(C(F)F)c(C(=O)N(CC(=C(Cl)Cl)c2ccc(Cl)c(Cl)c2)C2CC2)c1F` [Compound 121], the inhibition at 10 µM on succinate dehydrogenase was above 90%. In addition, the pest or weed control at 100 µg/mL in the test with Erysiphe graminis and in the test with Sphaerotheca fuliginea was 80 to 100% in each case.
Consider `Cc1ccc(C(CN(C(=O)c2c(C(F)F)nn(C)c2F)C2CC2)=C(Cl)Cl)cc1C` [Compound 151], for which the inhibition at 10 µM at succinate dehydrogenase was above 90%. Further, the pest or weed control at 100 µg/mL with Erysiphe graminis and in the test with Sphaerotheca fuliginea was 80 to 100% in each case.
For the compound `Cn1nc(C(F)F)c(C(=O)N(CC(=C(Cl)Cl)c2ccc(C(F)(F)F)cc2Cl)C2CC2)c1F` [Compound 158], at succinate dehydrogenase, the inhibition at 10 µM is above 90%. The pest or weed control at 100 µg/mL with Erysiphe graminis and in the test on Sphaerotheca fuliginea was 80 to 100% each time.
For the compound `C=C(CN(C(=O)c1c(C(F)F)nn(C)c1F)C1CC1)c1cccc(Cl)c1Cl` [Compound 8], at succinate dehydrogenase, the inhibition at 10 µM was above 90%. Also, the pest or weed control at 100 µg/mL in the test with Erysiphe graminis and in the test on Sphaerotheca fuliginea was 80 to 100% each time.
For `C=C(c1cccc(Cl)c1Cl)C(C)N(C(=O)c1c(C(F)F)nn(C)c1F)C1CC1` (centres unmarked) [Compound 75], on succinate dehydrogenase, the inhibition at 10 µM is above 90%. The pest or weed control at 100 µg/mL in the test with Erysiphe graminis and with Sphaerotheca fuliginea was 80 to 100% in each case.
On to `Cn1nc(C(F)F)c(C(=O)N(CC(=C(Cl)Cl)c2ccc(C#CC3CC3)cc2Cl)C2CC2)c1F` [Compound 165], for which, at succinate dehydrogenase, the inhibition at 10 µM is above 90%. In addition, the pest or weed control at 100 µg/mL in the test on Erysiphe graminis and in the test with Sphaerotheca fuliginea was 80 to 100% throughout.
Consider `CC(C(=C(Cl)Cl)c1c(F)cccc1F)N(C(=O)c1c(C(F)F)nn(C)c1F)C1CC1` (centres unmarked) [Compound 181], for which, at succinate dehydrogenase, the inhibition at 10 µM was above 90%. The pest or weed control at 100 µg/mL in the test on Erysiphe graminis and in the test on Sphaerotheca fuliginea was 80 to 100% in each case.
In the case of `C=C(CN(C(=O)c1c(C(F)F)nn(C)c1F)C1CC1)c1c(C)cccc1C` [Compound 35], the inhibition at 10 µM on succinate dehydrogenase was above 90%. For the same compound, in the test with Erysiphe graminis (6.25 mg/L), the pest or weed control at 6.25 µg/mL lay in the range of 70 to 80%. Further, the pest or weed control at 25 µg/mL in the test on Erysiphe graminis (25 mg/L) was in the range of 80 to 100%. The pest or weed control at 100 µg/mL with Erysiphe graminis and with Sphaerotheca fuliginea was 80 to 100% in each case.
`C=C(c1ccc(Cl)c(Cl)c1)C(C)N(C(=O)c1c(C(F)F)nn(C)c1F)C1CC1` (centres unmarked) [Compound 65]: the inhibition at 10 µM at succinate dehydrogenase is above 90%. The pest or weed control at 100 µg/mL with Erysiphe graminis and in the test on Sphaerotheca fuliginea was 80 to 100% throughout.
Consider `C=C(c1cc(C(C)(C)C)ccc1C)C(C)N(C(=O)c1c(C(F)F)nn(C)c1F)C1CC1` (centres unmarked) [Compound 95], for which, on succinate dehydrogenase, the inhibition at 10 µM is above 90%. In addition, the pest or weed control at 100 µg/mL in the test on Erysiphe graminis and in the test on Sphaerotheca fuliginea was 80 to 100% throughout.
In the case of `C=C(c1c(Br)cccc1Br)C(C)N(C(=O)c1c(C(F)F)nn(C)c1F)C1CC1` (centres unmarked) [Compound 84], the inhibition at 10 µM on succinate dehydrogenase is above 90%. The pest or weed control at 100 µg/mL with Erysiphe graminis and in the test with Sphaerotheca fuliginea was 80 to 100% in each case.
As for `CCS(=O)(=O)c1ccc(C(CN(C(=O)c2c(C(F)F)nn(C)c2F)C2CC2)=C(Cl)Cl)cc1` [Compound 163], the inhibition at 10 µM on succinate dehydrogenase was above 90%. Further, the pest or weed control at 100 µg/mL in the test with Erysiphe graminis and with Sphaerotheca fuliginea was 80 to 100% throughout.
As for `C=C(CN(C(=O)c1c(C(F)F)nn(C)c1F)C1CC1)c1ccc(C)cc1` [Compound 4], the inhibition at 10 µM on succinate dehydrogenase is above 90%. For the same compound, the pest or weed control at 100 µg/mL is 80 to 100% in the test on Erysiphe graminis and below 70% in the test with Sphaerotheca fuliginea.
For the compound `Cn1nc(C(F)F)c(C(=O)N(CC(=C(Cl)Cl)c2cc(C(F)(F)F)ccc2Cl)C2CC2)c1F` [Compound 156], on succinate dehydrogenase, the inhibition at 10 µM was above 90%. Also, the pest or weed control at 100 µg/mL in the test with Erysiphe graminis and with Sphaerotheca fuliginea was 80 to 100% throughout.
As to `C=C(c1ccc(F)cc1F)C(C)N(C(=O)c1c(C(F)F)nn(C)c1F)C1CC1` (centres unmarked) [Compound 64], on succinate dehydrogenase, the inhibition at 10 µM was above 90%. Besides, the pest or weed control at 100 µg/mL in the test with Erysiphe graminis and in the test on Sphaerotheca fuliginea was 80 to 100% each time.
Regarding `CC(C(=C(Cl)Cl)c1cc(S(C)(=O)=O)ccc1Cl)N(C(=O)c1c(C(F)F)nn(C)c1F)C1CC1` (centres unmarked) [Compound 215], the inhibition at 10 µM at succinate dehydrogenase is above 90%. Besides, the pest or weed control at 100 µg/mL in the test on Erysiphe graminis and in the test on Sphaerotheca fuliginea was 80 to 100% each time.
`Cn1nc(C(F)F)c(C(=O)N(CC(=C(Cl)Cl)c2ccc(Br)cc2)C2CC2)c1F` [Compound 131]: the inhibition at 10 µM at succinate dehydrogenase is above 90%. Besides, the pest or weed control at 100 µg/mL in the test on Erysiphe graminis and in the test with Sphaerotheca fuliginea was 80 to 100% each time.
In the case of `CC(C(=C(Cl)Cl)c1cc(Cl)ccc1F)N(C(=O)c1c(C(F)F)nn(C)c1F)C1CC1` (centres unmarked) [Compound 208], the inhibition at 10 µM on succinate dehydrogenase is above 90%. Besides, the pest or weed control at 100 µg/mL with Erysiphe graminis and in the test on Sphaerotheca fuliginea was 80 to 100% in each case.
Consider `Cn1nc(C(F)F)c(C(=O)N(CC(=C(Cl)Cl)c2cc(Cl)ccc2Cl)C2CC2)c1F` [Compound 119], for which the inhibition at 10 µM on succinate dehydrogenase is above 90%. Moreover, the pest or weed control at 100 µg/mL in the test with Erysiphe graminis and with Sphaerotheca fuliginea was 80 to 100% in each case.
Turning to `C=C(CN(C(=O)c1c(C(F)F)nn(C)c1F)C1CC1)c1cccc(Br)c1Br` [Compound 86], the inhibition at 10 µM on succinate dehydrogenase is above 90%. The pest or weed control at 100 µg/mL in the test on Erysiphe graminis and in the test on Sphaerotheca fuliginea was 80 to 100% in each case.
In the case of `CC(C(=C(Cl)Cl)c1cccc(C(F)(F)F)c1Cl)N(C(=O)c1c(C(F)F)nn(C)c1F)C1CC1` (centres unmarked) [Compound 210], the inhibition at 10 µM at succinate dehydrogenase was above 90%. For the same compound, the pest or weed control at 100 µg/mL in the test on Erysiphe graminis and with Sphaerotheca fuliginea was 80 to 100% each time.
Regarding `Cn1nc(C(F)F)c(C(=O)N(CC(=C(Cl)Cl)c2ccc(S(C)(=O)=O)cc2Cl)C2CC2)c1F` [Compound 159], the inhibition at 10 µM at succinate dehydrogenase was above 90%. The pest or weed control at 100 µg/mL in the test on Erysiphe graminis and with Sphaerotheca fuliginea was 80 to 100% in each case.
On to `Cc1ccccc1C(CN(C(=O)c1c(C(F)F)nn(C)c1F)C1CC1)=C(Cl)Cl` [Compound 149], for which the inhibition at 10 µM on succinate dehydrogenase was above 90%. Besides, the pest or weed control at 100 µg/mL in the test on Erysiphe graminis and with Sphaerotheca fuliginea was 80 to 100% each time.
`Cn1nc(C(F)F)c(C(=O)N(CC(=C(Cl)Cl)c2cccc(F)c2)C2CC2)c1F` [Compound 124]: at succinate dehydrogenase, the inhibition at 10 µM was above 90%. Besides, the pest or weed control at 100 µg/mL in the test on Erysiphe graminis and in the test with Sphaerotheca fuliginea was 80 to 100% each time.
Regarding `C=C(c1cccc(C)c1)C(C)N(C(=O)c1c(C(F)F)nn(C)c1F)C1CC1` (centres unmarked) [Compound 70], at succinate dehydrogenase, the inhibition at 10 µM was above 90%. The pest or weed control at 100 µg/mL in the test on Erysiphe graminis and with Sphaerotheca fuliginea was 80 to 100% each time.
Turning to `C=C(CN(C(=O)c1c(C(F)F)nn(C)c1F)C1CC1)c1cc(F)ccc1F` [Compound 24], the inhibition at 10 µM on succinate dehydrogenase is above 90%. For the same compound, the pest or weed control at 100 µg/mL with Erysiphe graminis and with Sphaerotheca fuliginea was 80 to 100% throughout.
As for `C=C(CN(C(=O)c1c(C(F)F)nn(C)c1F)C1CC1)c1ccccc1` [Compound 9], the inhibition at 10 µM on succinate dehydrogenase was above 90%. In addition, the figures for the pest or weed control at 100 µg/mL with Erysiphe graminis and in the test with Sphaerotheca fuliginea were 80 to 100% and below 70%, respectively.
For `Cn1nc(C(F)F)c(C(=O)N(CC(=C(Cl)Cl)c2cc(S(C)(=O)=O)ccc2Cl)C2CC2)c1F` [Compound 162], the inhibition at 10 µM at succinate dehydrogenase was above 90%. The pest or weed control at 100 µg/mL in the test on Erysiphe graminis and in the test with Sphaerotheca fuliginea was 80 to 100% throughout.
Turning to `Cc1cc(C(C)C)ccc1C(CN(C(=O)c1c(C(F)F)nn(C)c1F)C1CC1)=C(Cl)Cl` [Compound 148], the inhibition at 10 µM at succinate dehydrogenase was above 90%. For the same compound, the pest or weed control at 100 µg/mL with Erysiphe graminis and in the test on Sphaerotheca fuliginea was 80 to 100% each time.
